In this experiment the target is T1, Human PD-L1/PD-1 (Homo sapiens, UniProt Q9NZQ7).
T1 construct: TVMV protease cleavage site (C); made in house; host or cells: HEK293T cells
The experiment in a line: HTRF Human PD-L1/PD-1 binding assay (PD-1-Ig/PD-L1-His). Conditions: PD-L1-His 10 nM, PD-1-Ig 20 nM; class symbol; read-out: HTRF Human PD-L1/PD-1 Binding Assay IC50 Range. The method in brief: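 Truncated Fc-fused human PD-1 (aa 25-167) at 20 nM and His-tagged PD-L1 (aa 18-239) at 10 nM final are used, with peptides preincubated 15 min with PD-L1. Detection uses europium-cryptate anti-Ig and APC anti-His antibodies; 665/620 nm ratio.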

Structures are written as SMILES. Where a SMILES comes first, the peptide text is derived from it. Bridges are numbered along the chain shown (N, C = ends). [ ]: non-standard residue; d: D form. Phe(3,4,5-F3) = N[C@@H](Cc1cc(F)c(F)c(F)c1)C(=O)O; d(cisHyp) = O=C(O)[C@H]1C[C@@H](O)CN1; NMeF = CN[C@@H](Cc1ccccc1)C(=O)O; NMeNle = CCCC[C@H](NC)C(=O)O; Orn = NCCC[C@H](N)C(=O)O

T1 sequence (Q9NZQ7 with tags, fused parts or gaps): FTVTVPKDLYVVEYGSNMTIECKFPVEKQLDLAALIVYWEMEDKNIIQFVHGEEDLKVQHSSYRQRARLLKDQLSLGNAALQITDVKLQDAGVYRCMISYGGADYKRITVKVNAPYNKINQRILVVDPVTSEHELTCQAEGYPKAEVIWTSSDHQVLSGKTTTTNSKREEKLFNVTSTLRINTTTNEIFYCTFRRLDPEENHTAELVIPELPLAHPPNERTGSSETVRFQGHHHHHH

On to `CCCC[C@H]1C(=O)N2C[C@H](O)C[C@@H]2C(=O)N[C@@H](CC(=O)O)C(=O)N[C@@H](C(C)C)C(=O)N(C)[C@@H](Cc2ccccc2)C(=O)N[C@@H](CCC(=O)O)C(=O)N2C[C@H](O)C[C@@H]2C(=O)N[C@@H](Cc2c[nH]c3ccccc23)C(=O)N[C@@H](Cc2ccc(O)cc2)C(=O)N[C@@H](CC(=O)O)C(=O)N[C@H](C(=O)NCC(N)=O)CSCC(=O)N[C@@H](Cc2cc(F)c(F)c(F)c2)C(=O)N(C)[C@@H](Cc2ccccc2)C(=O)N1C` [Example 9336] ({CH2CO}-[Phe(3,4,5-F3)][NMeF][NMeNle][d(cisHyp)]DV[NMeF]E[d(cisHyp)]WYDCG-NH2; thioether N-13), for which the IC50 is 10 to 99.9 nM.
To `CCCC[C@H]1C(=O)N2C[C@H](O)C[C@@H]2C(=O)N[C@@H](CC(=O)O)C(=O)N[C@@H](C(C)C)C(=O)N(C)[C@@H](Cc2ccccc2)C(=O)N[C@@H](CCC(=O)O)C(=O)N2C[C@H](O)C[C@@H]2C(=O)N[C@@H](Cc2c[nH]c3ccccc23)C(=O)N[C@@H](Cc2ccc(O)cc2)C(=O)N[C@@H](CCC(N)=O)C(=O)N[C@H](C(=O)NCC(N)=O)CSCC(=O)N[C@@H](Cc2cc(F)c(F)c(F)c2)C(=O)N(C)[C@@H](Cc2ccccc2)C(=O)N1C` [Example 9337] ({CH2CO}-[Phe(3,4,5-F3)][NMeF][NMeNle][d(cisHyp)]DV[NMeF]E[d(cisHyp)]WYQCG-NH2; thioether N-13) belongs 10 to 99.9 nM.
Consider `CCCC[C@H]1C(=O)N2C[C@H](O)C[C@@H]2C(=O)N[C@@H](CC(=O)O)C(=O)N[C@@H](C(C)C)C(=O)N(C)[C@@H](Cc2ccccc2)C(=O)N[C@@H](CCC(=O)O)C(=O)N2C[C@H](O)C[C@@H]2C(=O)N[C@@H](Cc2c[nH]c3ccccc23)C(=O)N[C@@H](Cc2ccc(O)cc2)C(=O)N[C@@H](CC(N)=O)C(=O)N[C@H](C(=O)NCC(N)=O)CSCC(=O)N[C@@H](Cc2cc(F)c(F)c(F)c2)C(=O)N(C)[C@@H](Cc2ccccc2)C(=O)N1C` [Example 9338] ({CH2CO}-[Phe(3,4,5-F3)][NMeF][NMeNle][d(cisHyp)]DV[NMeF]E[d(cisHyp)]WYNCG-NH2; thioether N-13), for which the IC50 is 1 to 9.9 nM.
As for `CCCC[C@H]1C(=O)N2C[C@H](O)C[C@@H]2C(=O)N[C@@H](CC(=O)O)C(=O)N[C@@H](C(C)C)C(=O)N(C)[C@@H](Cc2ccccc2)C(=O)N[C@@H](CC(=O)O)C(=O)N2C[C@H](O)C[C@@H]2C(=O)N[C@@H](Cc2c[nH]c3ccccc23)C(=O)N[C@@H](Cc2ccc(O)cc2)C(=O)N[C@@H](CCCCN)C(=O)N[C@H](C(=O)NCC(N)=O)CSCC(=O)N[C@@H](Cc2cc(F)c(F)c(F)c2)C(=O)N(C)[C@@H](Cc2ccccc2)C(=O)N1C` [Example 9345] ({CH2CO}-[Phe(3,4,5-F3)][NMeF][NMeNle][d(cisHyp)]DV[NMeF]D[d(cisHyp)]WYKCG-NH2; thioether N-13), the IC50 lay within 1 to 9.9 nM.
The result for `CCCC[C@H]1C(=O)N2C[C@H](O)C[C@@H]2C(=O)N[C@@H](CC(=O)O)C(=O)N[C@@H](C(C)C)C(=O)N(C)[C@@H](Cc2ccccc2)C(=O)N[C@@H](CC(=O)O)C(=O)N2C[C@H](O)C[C@@H]2C(=O)N[C@@H](Cc2c[nH]c3ccccc23)C(=O)N[C@@H](Cc2ccc(O)cc2)C(=O)N[C@@H](CCCN)C(=O)N[C@H](C(=O)NCC(N)=O)CSCC(=O)N[C@@H](Cc2cc(F)c(F)c(F)c2)C(=O)N(C)[C@@H](Cc2ccccc2)C(=O)N1C` [Example 9346] ({CH2CO}-[Phe(3,4,5-F3)][NMeF][NMeNle][d(cisHyp)]DV[NMeF]D[d(cisHyp)]WY[Orn]CG-NH2; thioether N-13) reads 1 to 9.9 nM.

These data come from US10538555B2, “Macrocyclic inhibitors of the PD-1/PD-L1 and CD80(B7-1)/PD-L1 protein/protein interactions” (BRISTOL-MYERS SQUIBB COMPANY, priority 2014, dated 2020).
